Experiments:
[1] = set-up: method as in Schuppan et al. [2021]; settings: patients with celiac disease; ref Schuppan et al. [2021]; cited from earlier work
Liver microsome assay = format: in vitro ADME, murine; settings: 40 µM, after 60 min
Method: Microsome experiments with [^18F]7b in the presence of NADPH were performed according to the procedure recently described by us with slight modifications (Lemm et al. [2022]). […] [^18F]7b dissolved in 0.5% ethanol/PBS (100 µL; 0.2% ethanol final, e.g. 108 MBq/mL or 4.1 µM final) was mixed with PBS (112.5 µL) and murine liver microsomes (MLM, 12.5 µL of 20 mg/mL stock; 1 mg/mL final; Gibco™ Cat. No. MSMCPL, Lot. No. MS053-A) in a 1.5 mL Eppendorf tube and the mixture was warmed for 5 min at 37 °C. Subsequently, NADPH (25 µL of freshly prepared 20 mM solution in PBS, 2 mM final) was added and the mixture was incubated at 37 °C. As a control incubation, the NADPH solution was replaced by PBS. At distinct time points (5, 10, 15, 30, and 60 min), an aliquot (40 µL) was withdrawn and added to ice-cold CH3CN (160 µL). The mixture was vortexed for 30 s, stored on ice for 4 min and centrifuged (5 min at 16,100 × g). The resulting supernatant was used for radio-HPLC and radio-TLC analyses. For radio-HPLC, the Shimadzu Nexera X2 UHPLC system described above including the conditions for analysis was used. Radio-TLC was carried out on reversed-phase TLC plates (ALUGRAM RP-18W/UV254 from Macherey–Nagel, Düren, Germany) with a mobile phase of 40% CH3CN in water containing 0.1% trifluoroacetic acid. Visualization of radioactive spots and subsequent analysis was conducted as described above.
Testosterone (40 µM final) was used as positive control for the activity of the MLM and was separately treated and analyzed after incubation times of 5, 10, 15, 30, and 60 min as described above (0% ethanol final; HPLC gradient profile: 45% eluent B for 10 min followed by washing of the column with 45% to 95% eluent B in 1 min, 95% eluent B for 5 min, 95% to 45% eluent B in 1 min, 45% eluent B for 8 min; total time of 25 min).
For that, solutions of [^18F]7b in 0.5% ethanol/PBS (10 µL; 0.1% ethanol final, 17 MBq/mL or 1.14 µM final) were mixed with the respective tenfold concentrated solutions of 7b dissolved in 10% DMSO/PBS (5 µL, 1% DMSO final and 5/10/20/40/80 µM of 7b final), PBS (27.5 µL) and murine liver microsomes (2.5 µL of 20 mg/mL stock) in a 1.5 mL Eppendorf tube and the mixture was warmed for 5 min at 37 °C. Subsequently, NADPH (5 µL of freshly prepared 20 mM solution in PBS, 2 mM final) was added and the mixture was incubated at 37 °C. At distinct time points (5, 10, 15, 20, and 30 min), an aliquot (5 µL) was withdrawn and added to ice-cold CH3CN (40 µL). The subsequent steps were performed as described above including analysis by radio-TLC.
For the t1/2 approach at n.c.a. level, the obtained fractions of intact [^18F]7b (by radio-HPLC or radio-TLC analysis) were plotted against the time. Nonlinear regression was performed by one-phase decay (equation 1) as implemented in GraphPad Prism (GraphPad Prism 9.5.1.733), which provided the t1/2 values. The fraction at X = 0 min, Y0, was constrained to 1.0.1 Y0=Y0-Plateau×e^-k×X+Plateau
Subsequently, the intrinsic clearance, CLint (mL*min^−1*kg^−1), was calculated using equation 2 (Obach et al. [1997]; Schneider et al. [2019])2 CLint=ln2/t1/2min×fuinc×1/MLM(mg/mL)×microsomalprotein/liverweightmg/g×liverweight/bodyweightg/kg with the scaling factors of 60.1 mg/g (microsomal protein/liver weight for rats as no value for mice could be found) (Carlile et al. [1997]) and 87.5 g/kg (liver weight/body weight for mice) (Davies and Morris [1993]). The concentration of the MLMs was 1 mg/mL.
For the Vmax/Km approach, the obtained fractions of intact [^18F]7b (by radio-TLC analysis) were plotted against the time (fraction plot). The concentration plot was obtained by transformation of the fractions into concentrations of 7b by taking the experimentally determined molar activity of [^18F]7b into account (i.e. final concentration of 1.14, 6.16, 11.14, 21.14, 41.14, and 81.14 µM for 7b in the performed experiments). Both plots were analyzed by nonlinear regression according to one-phase decay (equation 1). […]

| Structure (SMILES) | effect on duodenal mucosa [1] | tolerability [1] | consumption of positive control by MLM (Liver microsome assay) |
| --- | --- | --- | --- |
| CCC(CC)CNC(=O)Cn1cccc(NC(=O)[C@H](CC/C=C/C(=O)OC)NC(=O)c2cncn2C)c1=O [ZED1227] | attenuated damage of the duodenal mucosa | well-tolerated | – |
| C[C@]12CC[C@H]3[C@@H](CCC4=CC(=O)CC[C@@]43C)[C@@H]1CC[C@@H]2O [Testosterone, reference compound] | – | – | completely consumed |

Reference: paper PMC10761660, “Preclinical evaluation of an ^18F-labeled N^ε-acryloyllysine piperazide for covalent targeting of transglutaminase 2” (EJNMMI Radiopharmacy and Chemistry, 2024)
